The series is described as follows: method code SF, from DOI: 10.1002/jps.2600780616, PMID: 2527297. Particulars: pH 7.4.

On to `N#CCCN(N)c1nc2cc(Cl)ccc2o1`, for which the log distribution coefficient (logD) (commonly lipophilicity at a set pH, counting ionised and neutral species) was determined as 1.72.

For the compound `CS(=O)(=O)c1ccc2oc(N(N)CCC#N)nc2c1`, the logD is -0.58.

Compound `COc1ccc2oc(N(N)CCC#N)nc2c1` returned a logD of 0.98.

As to `CCc1ccc2oc(N(N)CCC#N)nc2c1`, the logD was 1.91.

On to `CS(=O)c1ccc2oc(N(N)CCC#N)nc2c1` (centres undefined), for which the logD was -0.53.

`N#CCCN(N)c1nc2cc(OCc3ccccc3)ccc2o1`: the logD is 2.52.

On to `N#CCCN(N)c1nc2ccccc2o1`, for which the logD amounted to 0.9.

Turning to `N#CCCN(N)c1nc2cc(C(F)(F)F)ccc2o1`, the logD was found to be 1.72.

Take `N#CCCN(N)c1nc2cc(F)ccc2o1`: the log distribution coefficient (logD) stood at 1.09.

Turning to `CC(C)(C)c1ccc2oc(N(N)CCC#N)nc2c1`, the logD came out at 2.82.

`Cc1ccc2oc(N(N)CCC#N)nc2c1` showed a logD of 1.48.

Regarding `N#CCCN(N)c1nc2cc(C(=O)c3ccccc3)ccc2o1`, the logD was 1.94.

Take `N#CCCN(N)c1nc2cc(C#N)ccc2o1`: the logD came to 0.42.

As to `CSc1ccc2oc(N(N)CCC#N)nc2c1`, the pH-dependent lipophilicity (logD) came to 1.5.

Source of the values: the SangsterLogP compilation.
